“Also recorded” adds a separate entry of the source.
Experiments:
[1] = system: DRD1 membrane protein; conditions: treatment for 36 hrs
Protocol: The cultured SH-SY5Y cells were pretreated with complete EMEM medium containing 10 μM SCH23390 for 6 hrs or 12 hrs. […] After treatment, the cells were harvested and processed for mRNA and protein analysis of human DRD1 gene.
The cultured SH-SY5Y cells were pretreated with complete EMEM medium containing 10 μM SKF81297 for 6 hrs or 12 hrs. […] After treatment, the cells were harvested and processed for mRNA and protein analysis of human DRD1 gene
The membrane proteins were extracted using the mem-PER Plus membrane protein extraction kit (ThermoFisher Scinetific, Waltham, MA). The protein concentrations were semi-quantified spectrophotometrically at 280 nm. […] Then, proteins were electro-transferred to a polyvinyl difluoride (PVDF) membrane. […] After the block, the membrane was incubated with primary antibody (human DRD1 antibody, 1:1000) overnight at 4° C. […] The membrane was briefly washed 3 times using fresh TBS, then incubated with Pierce High Sensitivity Streptavidin HRP-linked secondary antibody (1:5000) in TBS supplemented with 0.5% BSA for 30 minutes at room temperature. The membrane was rinsed 3 times using fresh TBS. The immunoreactive protein bands in the membrane were visualized via UVP Biospectrum Imaging system (Upland, CA) using with Immobilon Chemiluminescence reagents (Millipore, Billerica, MA). Protein bands analysis was performed using the ImageJ (NIH, Bethesda, MD).

[2] = system: 2.8-kb human DRD1 gene promoter; experiment: Dual-luciferase reporter assay of human DRD1 gene promoter in SH-SY5Y cells; conditions: for effect on SCH23390/SKF81297-altered DRD1 promoter activity: co-treatment with SCH23390 or SKF81297
[3] = system: human DRD1 gene; experiment: DRD1 mRNA expression by quantitative real time-PCR in SH-SY5Y cells; conditions: for DRD1 mRNA expression, time response: 10 μM, 12, 18, 24, 30 or 32 hrs; for effect of Haloperidol co-treatment on SCH23390-decreased DRD1 mRNA expression: Haloperidol 10 μM co-treatment 12 hrs
Protocol: Time-response study. […] The controls received DMSO only. After each time period, the cells were harvested and processed for mRNA analysis of human DRD1 gene.
After treatment, the cells were harvested and processed for mRNA and protein analysis of human DRD1 gene.
After treatment, the cells were harvested and processed for mRNA and protein analysis of human DRD1 gene
The concentration and purity of total RNAs was determined by Biospectrometer (Eppendorf, Hauppauge, NY) at 260 nm. Only RNA samples with an A260/A280 ratio between 1.8-2.0 were used for cDNA synthesis. Briefly, 3 μg total RNAs were reversely transcribed into cDNA using Random and Oligo 9dT) Primers (cat #PR-C1181, Fisher Scientific, Hanover Park, IL), Oilgo dT (cat #FERSO131, Fisher Scientific, Hanover Park, IL), and SuperScript II reverse transcriptase (Life Technologies, Carlsbad, CA) following the manufacturer's instructions. The synthesized cDNA samples were stored at −20° C.
Each cDNA sample, in duplicate, was placed into 96-well plates and mixed with SYBR Select Master Mix (Life Technologies, Carlsbad, CA) and gene-specific primer set. In general, each SYBR reactions in each well contains 5 ml SYBR Select Master Mix, 0.2 μl 10 μM gene-specific primer set, 1.8 μl deionized distilled water, and 3 μl cDNA samples. The qRT-PCR assay was performed in an AriaMx qRT-PCR system (Agilent Technologies; Santa Clara, CA). The relative mRNA expression of each individual gene was calculated according to the comparative delta-delta CT method. The results were expressed as a relative fold, normalized to the expression of 18s rDNA. All quantitative RT-PCR primers were designed using PubMed Primer-BLAST or Primer3 software (NIH) and synthesized by Eurofins (Eurofins MWG Operon USA, Louisville, KY).
The sequences of RT-PCR primers of human DRD1 are as follows: • Gene human DRD1, forward primer: [Sequence ID: 1] 5′-[sequence]-3′, reverse primer: [Sequence ID: 2] 5′-[sequence]-3′ • Gene 18s rDNA, NM number NR_003278.3, forward primer [Sequence ID: 3] 5′-[sequence]-3′; reverse primer [Sequence ID: 4] 5′-[sequence]-3′

[4] = 10 μM, treatment for 18 hrs (FIG. 2A, 3A)
[5] = 10 μM, treatment for 24 hrs (FIG. 2A, 3A)

SMILES: CN1CCc2cc(Cl)c(O)cc2[C@@H](c2ccccc2)C1 [SCH23390, SCH-23390]
- decrease of DRD1 membrane protein [1]: more than 70%

SMILES: Cc1nc2n(c(=O)c1CCN1CCC(c3noc4cc(F)ccc34)CC1)CCCC2 [Risperidone]
- relative Luciferase activity of DRD1 under treatment of SCH and antipsychotic ([2]; co-treatment of SCH (FIG. 5A, 6A)): partial DRD1 antagonist effect
- relative Luciferase activity of DRD1 under treatment of SKF and antipsychotic ([2]; co-treatment of SKF (FIG. 5B, 6B)): partial DRD1 antagonist effect
- effect on SCH23390/SKF81297-altered DRD1 promoter activity [2]: trans-stabilize SCH23390/SKF81297-altered DRD1 promoter activity; also recorded: reverse and normalize either SCH23390 or SKF81297-altered human DRD1 promoter activity

SMILES: CN(C)C(=O)N[C@H]1CC[C@H](CCN2CCN(c3cccc(Cl)c3Cl)CC2)CC1 [Cariprazine]
- effect on SCH23390/SKF81297-altered DRD1 promoter activity [2]: trans-stabilize SCH23390/SKF81297-altered DRD1 promoter activity

SMILES: O=C(CCCN1CCC(O)(c2ccc(Cl)cc2)CC1)c1ccc(F)cc1 [Haloperidol]
- human DRD1 gene promoter activity, treatment alone ([2]; 2.8-kb promoter luciferase reporter, SCH23390 and SKF81297 for 36 hrs (FIG. 4A, 4B)): did not change human DRD1 gene promoter activity
- effect of haloperidol cotreatment on SCH23390-repressed DRD1 promoter activity ([2]; SCH23390 36 hrs, haloperidol cotreatment 24 or 36 hrs (FIG. 4A)): reversed
- effect of haloperidol co-treatment on SKF81297-activated DRD1 promoter activity ([2]; SKF81297 36 hrs, haloperidol co-treatment 24 and 36 hrs (FIG. 4B)): markedly attenuated
- effect on SCH23390/SKF81297-altered DRD1 promoter activity [2]: reversed SCH23390/SKF21897-altered DRD1 promoter activity; also recorded: reversed either SCH23390 or SKF81297-altered human DRD1 promoter activity
- DRD1 mRNA expression, time response ([3]; SH-SY5Y cells (FIG. 1A)): did not alter DRD1 mRNA expression at any time points
- DRD1 mRNA and protein expression, treatment alone (summary) ([3]; 10 μM, SH-SY5Y cells): does not alter DRD1 expression
- DRD1 mRNA expression, treatment alone [3, 4]: did not alter DRD1 mRNA expression
- DRD1 mRNA expression, treatment alone [3, 5]: did not alter DRD1 mRNA expression
- effect of Haloperidol co-treatment on SKF81297-increased DRD1 mRNA expression ([3]; Haloperidol co-treatment for 12 hrs (FIG. 3A)): completely diminished SKF81297-increased DRD1 mRNA expression
- effect of Haloperidol co-treatment on SCH23390-decreased DRD1 mRNA expression ([3]; SCH23390 10 μM for 18 hrs): completely reversed
- effect of Haloperidol co-treatment on SCH23390-decreased DRD1 mRNA expression ([3]; SCH23390 10 μM for 24 hrs): not reversed
- effect of Haloperidol co-treatment on SCH23390-decreased DRD1 mRNA and protein expression (summary) ([3]; SH-SY5Y cells (FIGS. 2A-2E)): reverses SCH23390-decreased DRD1 mRNA and protein expression; also recorded: reversed
- effect of Haloperidol co-treatment on SKF81297-increased DRD1 mRNA and protein expression (summary) ([3]; SH-SY5Y cells (FIGS. 3A-3E)): attenuated SKF81297-increased DRD1 mRNA and protein expression

SMILES: Oc1cc2c(c(Cl)c1O)CCNCC2c1ccccc1 (stereo not drawn) [SKF81297, SKF-81297]
- DRD1 mRNA expression, time response ([3]; SH-SY5Y cells (FIG. 1A)): time-dependently increased DRD1 mRNA expression
- increase of DRD1 mRNA expression ([3]; 10 μM, 24 hrs later, SH-SY5Y cells (FIG. 1A)): 6 fold
- DRD1 mRNA expression 30 hrs later and thereafter ([3]; 10 μM, 30 hrs later and thereafter, SH-SY5Y cells): decreased to basal level
- DRD1 mRNA and protein expression, treatment alone (summary) ([3]; 10 μM, SH-SY5Y cells): increases DRD1 mRNA and protein expression in a time-dependent manner
- DRD1 mRNA expression, treatment alone [3, 4]: increased human DRD1 mRNA expression
- DRD1 mRNA expression, treatment alone [3, 5]: increased human DRD1 mRNA expression
